Measurements: US7648985B2, “Oxabispidine compounds and their use in the treatment of cardiac arrhythmias” (AstraZeneca AB, priority 2004, dated 2010)

Biological target: T1, HERG channel (Homo sapiens, UniProt Q12809)
T1 construct: expressed in transfected cells
Assay: Test B: R^+-Efflux Assay for Detection of HERG Channel Blockers
Assay type: cell-based
Conditions: depolarisation-induced Rb+ efflux from Chinese hamster ovary cells stably expressing the HERG-channel; read-out: pIC50 for HERG channel blockade (converted)
Experimental: The IC50 value for HERG channel blockade was determined using a high throughput functional assay based on depolarisation-induced R^+-efflux from Chinese hamster ovary cells stably expressing the HERG-channel.
Cells were grown in Ham F12 (Life Technologies 31765-027) supplemented with 10% FBS and 0.6 mg/mL hygromycin B and were routinely passaged twice-weekly. For experimental studies, cells were plated at a density of 15,000 cells/well in Falcon, 384-well tissue culture-treated black-walled clear-bottomed plates and were thereafter incubated overnight at 37° C. in a cell culture incubator.
Following incubating overnight, cell plates were washed and a Rb^+-Load buffer (a physiological buffer containing Rb^+) was added. Cell plates were then incubated for 3 hours and were thereafter washed. Following this wash, the test compounds were added. The cell plates were then incubated for another 10 minutes and, following this incubation period, external K^+ concentration was increased in order to depolarize the cells and activate HERG channels. After a ten minute exposure period to the increased K^+ concentration, supernatants were transferred to new microplates for subsequent determination of Rb^+ content, using Atomic Absorption Spectrometry analysis. […]
Compound activity was expressed as: […]

T1 sequence (Q12809 whole entry): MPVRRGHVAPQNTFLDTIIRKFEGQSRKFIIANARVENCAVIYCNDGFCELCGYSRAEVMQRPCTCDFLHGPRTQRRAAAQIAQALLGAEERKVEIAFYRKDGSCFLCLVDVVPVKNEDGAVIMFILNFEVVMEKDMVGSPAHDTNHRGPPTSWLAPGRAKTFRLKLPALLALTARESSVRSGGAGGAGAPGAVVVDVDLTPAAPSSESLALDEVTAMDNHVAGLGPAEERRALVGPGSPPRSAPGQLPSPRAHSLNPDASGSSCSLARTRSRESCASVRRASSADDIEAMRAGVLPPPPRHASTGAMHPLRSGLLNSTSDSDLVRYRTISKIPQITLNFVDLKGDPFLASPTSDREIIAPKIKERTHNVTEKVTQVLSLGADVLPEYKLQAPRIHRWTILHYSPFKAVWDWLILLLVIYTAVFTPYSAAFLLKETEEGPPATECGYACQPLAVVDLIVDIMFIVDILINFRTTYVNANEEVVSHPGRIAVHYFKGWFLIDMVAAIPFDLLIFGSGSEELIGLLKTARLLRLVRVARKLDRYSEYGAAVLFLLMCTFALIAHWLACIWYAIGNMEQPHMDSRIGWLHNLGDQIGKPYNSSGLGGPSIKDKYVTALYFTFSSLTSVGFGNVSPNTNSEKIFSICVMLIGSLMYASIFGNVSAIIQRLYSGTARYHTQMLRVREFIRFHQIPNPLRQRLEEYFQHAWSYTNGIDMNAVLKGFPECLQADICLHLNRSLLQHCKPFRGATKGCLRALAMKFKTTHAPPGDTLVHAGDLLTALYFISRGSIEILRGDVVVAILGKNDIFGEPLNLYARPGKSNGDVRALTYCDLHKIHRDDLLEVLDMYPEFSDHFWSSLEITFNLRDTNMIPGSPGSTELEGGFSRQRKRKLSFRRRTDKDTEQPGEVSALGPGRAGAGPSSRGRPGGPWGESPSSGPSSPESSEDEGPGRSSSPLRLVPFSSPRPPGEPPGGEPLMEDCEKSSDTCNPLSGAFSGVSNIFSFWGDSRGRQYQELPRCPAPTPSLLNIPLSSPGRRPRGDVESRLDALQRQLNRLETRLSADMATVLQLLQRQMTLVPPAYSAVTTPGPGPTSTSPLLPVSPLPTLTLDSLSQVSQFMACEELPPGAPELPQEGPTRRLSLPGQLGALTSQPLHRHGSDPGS

Q: `Cc1noc(C)c1S(=O)(=O)NCCN1CC2CN(CCOc3ccc(C#N)cc3)CC(C1)O2` [Example 9, N-(2-{7-[2-(4-cyanophenoxy)ethyl]-9-oxa-3,7-diazabicyclo[3.3.1]non-3-yl}ethyl)-3,5-dimethylisoxazole-4-sulfonamide] was tested. Which IC50 did it give?
A: 3.24 µM
